Reference: patent US20190169140A1, “IDO1 INHIBITOR AND PREPARATION METHOD AND APPLICATION THEREOF” (SHANDONG LUYE PHARMACEUTICAL CO., LTD., priority 2016, published 2019)
pIC50: −log10 of the molar value. Marks after values point to notes of the source that are not given here.

Legend:
[1] = molecular target: T1, IDO1 enzyme in Hela cells (Homo sapiens, UniProt P14902); assay: Test of hIDO1 for cytological activity (Hela cell kynurenine by LCMS, interferon-γ induced); assay type: cell-based; conditions: interferon-γ 100 ng/ml, 20 hours
T1 construct: endogenous in cells; host or cells: Hela cells, induced with recombinant human interferon-γ
T1 sequence (P14902 whole entry): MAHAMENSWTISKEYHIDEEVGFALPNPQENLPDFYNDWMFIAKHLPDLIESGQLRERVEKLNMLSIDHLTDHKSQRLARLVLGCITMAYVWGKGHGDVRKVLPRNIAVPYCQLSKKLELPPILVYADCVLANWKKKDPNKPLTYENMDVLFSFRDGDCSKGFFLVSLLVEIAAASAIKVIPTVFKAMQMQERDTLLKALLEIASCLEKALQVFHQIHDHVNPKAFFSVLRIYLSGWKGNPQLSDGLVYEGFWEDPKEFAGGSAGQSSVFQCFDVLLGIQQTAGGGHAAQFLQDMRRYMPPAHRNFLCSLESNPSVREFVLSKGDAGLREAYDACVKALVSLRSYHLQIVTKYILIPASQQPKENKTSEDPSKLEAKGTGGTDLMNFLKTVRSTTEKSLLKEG
Procedure: 2. Test of hIDO1 for Cytological Activity
Changes in Hela cell kynurenine were detected by an LCMS method. With an IC50 value of a compound as an index, an inhibitory effect of the compound on IDO1 enzyme was evaluated.
The culture medium, trypsin, and DPBS were preheated in water bath at 37° C. The culture medium was removed by sucking from cell culture, followed by cleaning the cell culture with 10 mL of DPBS; the preheated trypsin was added to the culture flask, which was revolved to make the culture flask covered by trypsin uniformly, and placed into an incubator at 37° C. with 5% CO2 for digestion for 1-2 minutes; 10-15 mL of the culture medium was used to suspend cells each T150, followed by centrifugation at 800 rpm for 5 minutes. 10 mL of the culture medium was used to resuspend the cells. 1 mL of the cell resuspension was pipetted, and counted with Vi-cell; the Hela cells were diluted to 5×10^5/mL with the culture medium, 80 μL of the diluted Hela cells were added to the 96-well cell plate, and incubated in the an incubator at 37° C. with 5% CO2 for 5-6 hours.
The compound was diluted with DMSO to 1 mM, with 9 gradients, each 3-fold dilution, in duplicate. 5 μL of the already diluted compound DMSO solution was added to the compound plate containing 95 μL of the culture medium. After even mixing, 10 μL of the mixture was transferred to the cell plate.
10 μL of recombinant human interferon-γ was added to result in a final concentration of 100 ng/ml, to induce expression of IDO1. Incubation was carried out in the 5% CO2 incubator at 37° C. for 20 hours. 4 μL of 5% (w/v) trichloroacetic acid was added, followed by even mixing and incubation at 50° C. for 30 minutes. After centrifugation at 2400 rpm for 10 minutes, 40 μL of a supernatant was added to a 96-well V-bottom plate, followed by addition of a precipitant. Centrifugation was carried out at 4000 rpm for 10 minutes after even mixing. 100 μL of the supernatant was transferred to a new 96-well V-bottom plate. A content of kynurenine was detected through LCMS.
A reference well to which the interferon-γ was added but no compound was added was set to have an inhibition rate of 0%, and a reference well to which no Hela cell was added was set to have an inhibition rate of 100%. Data was analyzed with XLFit 5 to calculate an IC50 value of the compound.

[2] = system: mice colon cancer CT26; assay: Efficacy against mice colon cancer CT26 transplanted tumor; assay type: in vivo, BALB/c mice; conditions: for Inhibitory Rate for Tumor Weight / Tumor Weight / mean tumor weight compared with the control group: end of experiment; for tumor inhibitory effect compared at the same dose: same dose of 100 mg/kg
Procedure: Research on Efficacy of Anti-Mice Colon Cancer Ct26
In the present research, colon cancer CT26 models were employed to compare differences between compound 231 and compounds 360 and 117 in antitumor effects.
Therefore, the dose of the two compounds, compound 360 and compound 117, in the present experiment was set as 100 mg/kg. In order to observe dose-efficacy relevance of 231, a dose of the compound 231 was set as 25, 50, 100, 200 mg/kg in the present experiment. All drugs were administered by gavage, twice a day.
According to document reports, mice colon cancer CT26 is a commonly used tumor model for evaluating immunological drugs. […] Therefore, CT26-bearng BALB/c models were chosen in the present experiment for research on efficacy and tissue distribution.
In a super-clean bench, each mouse was subcutaneously inoculated with 0.2 mL of the tumor cell suspension at shoulder, with an inoculation amount of 1×10^5 per mouse. When a tumor block grew to be 500-1000 mm^3, the tumor block was taken out, cut into pieces with scissors, and subcutaneously inoculated at shoulder at the mouse's back using a subcutaneous embedding implantation puncture needle (with a diameter of 1.2 mm).
The day of tumor inoculation was defined as Day 0, and the inoculated animals were grouped randomly on the day of inoculation. One day after the inoculation (Day 1), the administration was started. The experiment had 7 groups in total, with 12 animals in each group. See details in Table 12 for information on animal grouping and administration.
It was an experimental cycle when the tumor in the control group grew to have a volume of 3000 mm^3. The following indexes were observed during the experiment.
(1) As for tumor growth curve, when the tumor was measurable, a maximum diameter (a) and a minimum diameter (b) of the tumor were measured once every other day, to calculate the tumor volume (a calculation formula is V=½×a×b^2), and anti-tumor effect of the tested drug was observed dynamically.
(4) As for tumor inhibitory rate, when the experiment was ended, the mice were killed by cervical dislocation, the tumor blocks were taken out and weighed, to calculate the tumor inhibitory rate, where tumor inhibitory rate=(mean tumor weight of the control group-mean tumor weight of the treatment group)/mean tumor weight of the control group×100%), and the tumor blocks were photographed with a digital camera for recording.

SMILES: NS(=O)(=O)NCCOc1nonc1/C(=N/O)Nc1ccc(F)c(Br)c1 [Compound 0015]
- pIC50 [1]: 7.85

SMILES: NS(=O)(=O)NCCSc1nonc1/C(=N/O)Nc1ccc(F)c(Br)c1 [Compound 0117]
- pIC50 [1]: 8.23
- mean tumor volume compared with the control group during the test ([2]; 100 mg/kg gavage BID): always less than that of the control group, but without statistical difference
- animals without tumor block when the test was ended ([2]; 100 mg/kg gavage BID, 12 animals): one animal on which no tumor block grew
- Mean Tumor Volume ([2]; 100 mg/kg gavage BID, D12): 517.3 ± 261.9 mm^3
- Mean Tumor Volume ([2]; 100 mg/kg gavage BID, D14): 760.9 ± 335.7 mm^3
- Mean Tumor Volume ([2]; 100 mg/kg gavage BID, D17): 1410.5 ± 734.0 mm^3
- Mean Tumor Volume ([2]; 100 mg/kg gavage BID, Day8): 130.1 ± 31.1 mm^3
- Mean Tumor Volume ([2]; 100 mg/kg gavage BID, Day10): 262.3 ± 131.2 mm^3
- Inhibitory Rate for Tumor Weight ([2]; 100 mg/kg gavage BID): 14.4%
- Tumor Weight ([2]; 100 mg/kg gavage BID): 1.71 ± 0.76 g
- mean tumor weight compared with the control group ([2]; 100 mg/kg gavage BID): less than that of the control group, but without statistical difference

SMILES: CC(=O)NCCSc1nonc1/C(=N/O)Nc1ccc(F)c(Br)c1 [Compound 0227]
- pIC50 [1]: 8.51

SMILES: NC(=O)NCCSc1nonc1/C(=N/O)Nc1ccc(F)c(Br)c1 [Compound 0231]
- pIC50 [1]: 8.36
- tumor volume compared with the control group ([2]; 25 mg/kg (low dose) gavage BID): remarkably less than that of the control group at Day 10 and Day 12
- Mean Tumor Volume ([2]; 25 mg/kg gavage BID, D12): 411.7 ± 275.4* mm^3
- Mean Tumor Volume ([2]; 25 mg/kg gavage BID, D14): 721.9 ± 575.3 mm^3
- Mean Tumor Volume ([2]; 25 mg/kg gavage BID, D17): 1471.2 ± 1269.4 mm^3
- Mean Tumor Volume ([2]; 25 mg/kg gavage BID, Day8): 69.5 ± 21.9 mm^3
- Mean Tumor Volume ([2]; 25 mg/kg gavage BID, Day10): 229.1 ± 76.7* mm^3
- Inhibitory Rate for Tumor Weight ([2]; 25 mg/kg gavage BID): 25.9%
- Tumor Weight ([2]; 25 mg/kg gavage BID): 1.49 ± 1.16 g
- Mean Tumor Volume ([2]; 50 mg/kg gavage BID, D12): 436.8 ± 204.9* mm^3
- Mean Tumor Volume ([2]; 50 mg/kg gavage BID, D14): 661.5 ± 255.6* mm^3
- Mean Tumor Volume ([2]; 50 mg/kg gavage BID, D17): 1242.2 ± 500.9* mm^3
- Mean Tumor Volume ([2]; 50 mg/kg gavage BID, Day8): 94.5 ± 52.5 mm^3
- Mean Tumor Volume ([2]; 50 mg/kg gavage BID, Day10): 234.6 ± 117.6* mm^3
- Inhibitory Rate for Tumor Weight ([2]; 50 mg/kg gavage BID): 29.2%
- Tumor Weight ([2]; 50 mg/kg gavage BID): 1.42 ± 0.56 g
- Mean Tumor Volume ([2]; 100 mg/kg gavage BID, D12): 372.4 ± 308.9* mm^3
- Mean Tumor Volume ([2]; 100 mg/kg gavage BID, D14): 598.6 ± 442.3* mm^3
- Mean Tumor Volume ([2]; 100 mg/kg gavage BID, D17): 1195.4 ± 779.8* mm^3
- Mean Tumor Volume ([2]; 100 mg/kg gavage BID, Day8): 97.9 ± 86.9 mm^3
- Mean Tumor Volume ([2]; 100 mg/kg gavage BID, Day10): 168.2 ± 145.5* mm^3
- Inhibitory Rate for Tumor Weight ([2]; 100 mg/kg gavage BID): 34.0%
- Tumor Weight ([2]; 100 mg/kg gavage BID): 1.32 ± 1.09 g
- Mean Tumor Volume ([2]; 200 mg/kg gavage BID, D12): 300.4 ± 231.8* mm^3
- Mean Tumor Volume ([2]; 200 mg/kg gavage BID, D14): 512.2 ± 351.8* mm^3
- Mean Tumor Volume ([2]; 200 mg/kg gavage BID, D17): 909.7 ± 544.6* mm^3
- Mean Tumor Volume ([2]; 200 mg/kg gavage BID, Day8): 74.2 ± 32.2 mm^3
- Mean Tumor Volume ([2]; 200 mg/kg gavage BID, Day10): 160.5 ± 114.9* mm^3
- Inhibitory Rate for Tumor Weight ([2]; 200 mg/kg gavage BID): 56.8%
- Tumor Weight ([2]; 200 mg/kg gavage BID): 0.87 ± 0.74 g
- mean tumor weight compared with the control group ([2]; 200 mg/kg gavage BID): remarkably less than that of the control group
- mean tumor weight compared with the control group ([2]; 25, 50, 100 mg/kg gavage BID): less than that of the control group, but without statistical difference
- tumor inhibitory effect, dose dependence ([2]; 25, 50, 100, 200 mg/kg gavage BID): dose-dependent manner
- tumor volume compared with the control group ([2]; dose equal to or greater than 50 mg/kg, Day 10 to end of test): always remarkably less than that of the control group
- tumor inhibitory effect compared at the same dose [2]: equivalent tumor inhibitory effect

SMILES: NS(=O)(=O)NCCNc1nonc1C(=NO)Nc1ccc(F)c(Br)c1 [Compound 360, INCB024360, reference compound]
- mean tumor volume compared with the control group during the test ([2]; 100 mg/kg gavage BID): always less than that of the control group, but without statistical difference
- Mean Tumor Volume ([2]; 100 mg/kg gavage BID, D12): 512.0 ± 240.2 mm^3
- Mean Tumor Volume ([2]; 100 mg/kg gavage BID, D14): 949.2 ± 773.3 mm^3
- Mean Tumor Volume ([2]; 100 mg/kg gavage BID, D17): 1531.0 ± 606.0 mm^3
- Mean Tumor Volume ([2]; 100 mg/kg gavage BID, Day8): 95.2 ± 36.6 mm^3
- Mean Tumor Volume ([2]; 100 mg/kg gavage BID, Day10): 303.5 ± 233.3 mm^3
- Inhibitory Rate for Tumor Weight ([2]; 100 mg/kg gavage BID): 29.5%
- Tumor Weight ([2]; 100 mg/kg gavage BID): 1.41 ± 0.81 g
- mean tumor weight compared with the control group ([2]; 100 mg/kg gavage BID): less than that of the control group, but without statistical difference
- tumor inhibitory rate for CT26 ([2]; preliminary experimental research, gavage 100 mg/kg bid): 30-50%
- tumor inhibitory effect compared at the same dose [2]: equivalent tumor inhibitory effect
